Drawing on patent US10899738B2 (THE REGENTS OF THE UNIVERSITY OF MICHIGAN, priority 2016, dated 2021), this text covers IC50 for 19 compounds.

By IC50 is commonly meant the midpoint of a concentration-inhibition curve.

Test [1] is described as follows: Cell growth inhibition, CellTiter-Glo Luminescent Cell Viability Assay. The format is cell-based. The gist of the method:
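Cells seeded at 2,000/well with serially diluted compound and cultured 4 days at 37 °C, 5% CO2. Viability read by CellTiter-Glo luminescence; IC50 derived from dose-response.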
(ATP-based viability assays read luminescence as a measure of living cells.)

In another test the target is menin protein (Homo sapiens (Human), UniProt O00255). Nature of the test: biochemical. The format is binding. The following applies: FP competitive binding; menin protein 4 nM, FAM-MM2 probe 2 nM; read-out: Menin Binding Affinity IC50. The gist of the method: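 Test compounds displaced FAM-MM2 (2 nM) from 4 nM menin after 30 min equilibration at room temperature in PBS buffer containing bovine γ-globulin, 4% DMSO and Triton X-100. Binding was followed by fluorescence polarization. Competition curves were fitted by nonlinear regression to give IC50 and Ki.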

The mark [2] stands for this setting: MOLM-13, 96 h, read-out: Cell Growth Inhibition IC50 (μM) MOLM13, MOLM13 cells, 4 days, CellTiter-Glo.
[3] abbreviates: MV4-11, 96 h, read-out: Cell Growth Inhibition IC50 (μM) MV4, 11, MV4, 11 cells, 4 days, CellTiter-Glo.
Setting [4] is: MOLM-13, 96 h, MOLM13 cells, 4 days, CellTiter-Glo, read-out: Cell Growth Inhibition IC50 (μM) MOLM13.
Setting [5] is: MV4-11, 96 h, MV4, 11 cells, 4 days, CellTiter-Glo, read-out: Cell Growth Inhibition IC50 (μM) MV4, 11.

Molecules are shown by their SMILES. Where two headings read alike, the source gives them in different places.

menin protein, sequence (O00255 whole entry): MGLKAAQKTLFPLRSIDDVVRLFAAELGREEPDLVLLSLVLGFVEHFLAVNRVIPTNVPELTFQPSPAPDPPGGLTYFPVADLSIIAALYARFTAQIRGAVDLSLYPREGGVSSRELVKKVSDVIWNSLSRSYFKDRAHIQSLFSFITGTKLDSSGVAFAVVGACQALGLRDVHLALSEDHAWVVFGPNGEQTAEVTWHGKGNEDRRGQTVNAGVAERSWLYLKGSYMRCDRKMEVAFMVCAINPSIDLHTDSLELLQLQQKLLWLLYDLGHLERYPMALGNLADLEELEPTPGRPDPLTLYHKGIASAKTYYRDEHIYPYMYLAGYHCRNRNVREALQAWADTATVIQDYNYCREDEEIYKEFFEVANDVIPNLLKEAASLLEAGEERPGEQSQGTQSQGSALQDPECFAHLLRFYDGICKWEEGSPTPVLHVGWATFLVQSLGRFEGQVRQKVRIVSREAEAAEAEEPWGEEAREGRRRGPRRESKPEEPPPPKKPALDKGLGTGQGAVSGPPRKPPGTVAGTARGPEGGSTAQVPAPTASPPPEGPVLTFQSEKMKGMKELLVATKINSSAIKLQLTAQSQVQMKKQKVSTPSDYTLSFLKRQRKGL

On to `CNC(=O)O[C@H]1CCC[C@@H]1C(C#N)(c1ccccc1)C1CCN(CC2CN(c3ccc(S(=O)(=O)c4nn(C)cc4Br)cc3)C2)CC1` (mixture of isomers) [compound 228, rac-(1S,2R)-2-((1-((1-(4-((4-bromo-1-methyl-1H-pyrazol-3-yl)sulfonyl)phenyl)azetidin-3-yl)methyl)piperidin-4-yl)(cyano)(phenyl)methyl) cyclopentyl methylcarbamate], for which the results for the IC50 (in test [1] (setting [2]); in test [1] (setting [3]); at menin protein) were 0.25 µM, 0.18 µM and 4 nM, respectively.

Turning to `CCN1Cc2ccccc2C(C2CCCC2)(C2CCN(CC3CN(c4ccc(S(=O)(=O)C(F)(F)F)cc4)C3)CC2)C1` (stereo not drawn) [compound 145, 4-cyclopentyl-2-ethyl-4-(1-((1-(4-((trifluoromethyl)sulfonyl)phenyl)azetidin-3-yl)methyl)piperidin-4-yl)-1,2,3,4-tetrahydroisoquinoline], the IC50 was 3.3 ± 0.5 µM in test [1] (setting [4]), 1.6 ± 0.8 µM in test [1] (setting [5]) and 15 nM on menin protein.

Regarding `O=S(=O)(c1ccccc1)c1ccc(N2CC(CN3CCC(C4(C5CCCC5)NCCc5ccccc54)CC3)C2)cc1` (stereo not drawn) [compound 149, 1-cyclopentyl-1-(1-((1-(4-(phenylsulfonyl)phenyl)azetidin-3-yl)methyl)piperidin-4-yl)-1,2,3,4-tetrahydroisoquinoline], the IC50 in test [1] (setting [4]) was found to be 0.331 µM; in test [1] (setting [5]), 0.493 µM; on menin protein it was 12 nM.

As for `CNC(=O)N[C@H]1CCC[C@@H]1C(CN)(c1ccccc1)C1CCN(CC2CN(c3ccc(S(=O)(=O)c4ccccc4)cc3)C2)CC1` (mixture of isomers) [compound 321, rac-1-((1S,2R)-2-(2-amino-1-phenyl-1-(1-((1-(4-(phenylsulfonyl)phenyl)azetidin-3-yl)methyl)piperidin-4-yl)ethyl)cyclopentyl)-3-methylurea], the half-inhibitory concentration (IC50) in test [1] (setting [2]) came out at 1.25 µM; in test [1] (setting [3]), 0.73 µM; at menin protein, 4 nM.

With `CNC(=O)O[C@@H]1CCC[C@H]1C(Cn1ccnc1C)(c1cccc(F)c1)C1CCN(CC2CN(c3ccc(S(=O)(=O)c4cnn(C)c4)cc3)C2)CC1` (mixture of isomers) [compound 410, rac-(1R,2S)-2-(1-(3-fluorophenyl)-2-(2-methyl-1H-imidazol-1-yl)-1-(1-((1-(4-((1-methyl-1H-pyrazol-4-yl)sulfonyl)phenyl)azetidin-3-yl)methyl)piperidin-4-yl)ethyl)cyclopentyl methylcarbamate], the IC50 worked out at 3.1 µM in test [1] (setting [2]), 2.7 µM in test [1] (setting [3]) and 49 nM at menin protein.

Take `COC(=O)N[C@H]1CCC[C@@H]1C(C#N)(c1ccccc1)C1CCN(CC2CN(c3ccc(S(=O)(=O)C4CC4)cc3Cl)C2)CC1` (mixture of isomers) [compound 395, methyl rac-((1S,2R)-2-((1-((1-(2-chloro-4-(cyclopropylsulfonyl)phenyl)azetidin-3-yl)methyl)piperidin-4-yl)(cyano)(phenyl)methyl)cyclopentyl)carbamate]: the values for the half-inhibitory concentration (IC50) (in test [1] (setting [2]); in test [1] (setting [3]); at menin protein) were 2.29 µM, 0.65 µM and 16 nM, respectively.

For `N#Cc1ccc(N2CC(CN3CCC(C4(C5CCCC5)CNCc5ccccc54)CC3)C2)cc1` (stereo not drawn) [compound 43, 4-(3-((4-(4-cyclopentyl-1,2,3,4-tetrahydroisoquinolin-4-yl)piperidin-1-yl)methyl)azetidin-1-yl)benzonitrile], the IC50 is 2.1 µM in test [1] (setting [4]), 0.896 ± 0.056 µM in test [1] (setting [5]) and 26 nM on menin protein.

For `CCN1Cc2ccccc2C(C2CCCC2)(C2CCN(CC3CN(c4ccc(S(=O)(=O)C5CC5)cc4Cl)C3)CC2)C1` (stereo not drawn) [compound 144, 4-(1-((1-(2-chloro-4-(cyclopropylsulfonyl)phenyl)azetidin-3-yl)methyl)piperidin-4-yl)-4-cyclopentyl-2-ethyl-1,2,3,4-tetrahydroisoquinoline], the half-inhibitory concentration (IC50) was 4 ± 0.7 µM in test [1] (setting [4]), 1.6 ± 1.1 µM in test [1] (setting [5]) and 23 nM on menin protein.

On to `CC(C)N1Cc2ccccc2C(C2CCCC2)(C2CCN(CC3CN(c4ccc(S(=O)(=O)c5ccncc5)cc4)C3)CC2)C1` (stereo not drawn) [compound 48, 4-cyclopentyl-2-isopropyl-4-(1-((1-(4-(pyridin-4-ylsulfonyl)phenyl)azetidin-3-yl)methyl)piperidin-4-yl)-1,2,3,4-tetrahydroisoquinoline], for which the values for the IC50 (in test [1] (setting [4]); in test [1] (setting [5]); on menin protein) were 2.8 µM, 0.908 µM and 7 nM, respectively.

`CC(C)S(=O)(=O)c1ccc(N2CC(CN3CCC(C4(C5CCCC5)NCCc5ccccc54)CC3)C2)cc1` (stereo not drawn) [compound 134, 1-cyclopentyl-1-(1-((1-(4-(isopropylsulfonyl)phenyl)azetidin-3-yl)methyl)piperidin-4-yl)-1,2,3,4-tetrahydroisoquinoline]: the IC50 in test [1] (setting [4]) is 3.8 µM; in test [1] (setting [5]) it was 1.1 µM; at menin protein, 67 nM.

Regarding `CNC(=O)O[C@H]1CCC[C@@H]1C(Cn1ccnc1)(c1ccccc1)C1CCN(CC2CN(c3ccc(S(=O)(=O)c4ccc(C(=O)O)cc4)cc3)C2)CC1` (mixture of isomers) [compound 362, rac-4-((4-(3-((4-(2-(1H-imidazol-1-yl)-1-((1R,2S)-2-((methylcarbamoyl)oxy)cyclopentyl)-1-phenylethyl)piperidin-1-yl)methyl)azetidin-1-yl)phenyl)sulfonyl)benzoic acid], the IC50 in test [1] (read-out: Cell Growth Inhibition IC50 (μM) MOLM13, MOLM13 cells, 4 days, CellTiter-Glo) was more than 10 µM; in test [1] (read-out: Cell Growth Inhibition IC50 (μM) MV4, 11, MV4, 11 cells, 4 days, CellTiter-Glo), 4.79 µM; on menin protein, 8 nM.

Turning to `CNC(=O)N[C@H]1CCC[C@@H]1C1(C2CCN(CC3CN(c4ccc(S(=O)(=O)C5CC5)cc4)C3)CC2)CN(C(C)C)Cc2ccccc21` (mixture of isomers) [compound 288, rac-1-((1S,2R)-2-(4-(1-((1-(4-(cyclopropylsulfonyl)phenyl)azetidin-3-yl)methyl)piperidin-4-yl)-2-isopropyl-1,2,3,4-tetrahydroisoquinolin-4-yl)cyclopentyl)-3-methylurea], the IC50 in test [1] (setting [2]) was 48.8 µM; in test [1] (setting [3]), 0.35 µM; on menin protein, 12 nM.

For the compound `CN(C)C(=O)N[C@H]1CCC[C@@H]1C(C#N)(c1ccccc1)C1CCN(CC2CN(c3ccc(S(=O)(=O)c4ccncc4)cc3)C2)CC1` (mixture of isomers) [compound 275, rac-3-((1S,2R)-2-(cyano(phenyl)(1-((1-(4-(pyridin-4-ylsulfonyl)phenyl)azetidin-3-yl)methyl)piperidin-4-yl)methyl)cyclopentyl)-1,1-dimethylurea], the IC50 was 0.41 µM in test [1] (setting [2]), 0.45 µM in test [1] (setting [3]) and 12 nM at menin protein.

`CCN1Cc2ccccc2C(C2CCN(CC3CN(c4ccc(S(=O)(=O)C5CC5)cc4)C3)CC2)([C@H]2CCC[C@@H]2NC(=O)NC)C1` (mixture of isomers) [compound 289, rac-1-((1S,2R)-2-(4-(1-((1-(4-(cyclopropylsulfonyl)phenyl)azetidin-3-yl)methyl)piperidin-4-yl)-2-ethyl-1,2,3,4-tetrahydroisoquinolin-4-yl)cyclopentyl)-3-methylurea]: the values for the IC50 (in test [1] (setting [2]); in test [1] (setting [3]); on menin protein) were 0.32 µM, 0.17 µM and 4 nM, respectively.

As to `CCN1Cc2ccccc2C(C2CCCC2)(C2CCN(CC3CN(c4ccc(S(=O)(=O)c5ccccc5)cc4)C3)CC2)C1` (stereo not drawn) [compound 147, 4-cyclopentyl-2-ethyl-4-(1-((1-(4-(phenylsulfonyl)phenyl)azetidin-3-yl)methyl)piperidin-4-yl)-1,2,3,4-tetrahydroisoquinoline], the IC50 turned out to be 1.6 ± 0.8 µM in test [1] (setting [4]), 0.956 ± 0.727 µM in test [1] (setting [5]) and 9 nM on menin protein.

As to `CCN1Cc2ccccc2C(C2CCCC2)(C2CCN(CC3CN(c4ccc(S(=O)(=O)c5cnn(CC)c5)cc4)C3)CC2)C1` (stereo not drawn) [compound 103, 4-cyclopentyl-2-ethyl-4-(1-((1-(4-((1-ethyl-1H-pyrazol-4-yl)sulfonyl)phenyl)azetidin-3-yl)methyl)piperidin-4-yl)-1,2,3,4-tetrahydroisoquinoline], the IC50 in test [1] (setting [4]) came to 2.26 µM; in test [1] (setting [5]), 0.49 µM; at menin protein, 12 nM.

As for `CCN1Cc2ccccc2C(C2CCCC2)(C2CCN(CC3CN(c4ccc(C#N)cc4)C3)CC2)C1` (stereo not drawn) [compound 46, 4-(3-((4-(4-cyclopentyl-2-ethyl-1,2,3,4-tetrahydroisoquinolin-4-yl)piperidin-1-yl)methyl)azetidin-1-yl)benzonitrile], the IC50 in test [1] (setting [4]) is 5.1 ± 0.2 µM; in test [1] (setting [5]), 0.972 ± 0.558 µM; at menin protein, 23 nM.

In the case of `COC(=O)N[C@H]1CCC[C@@H]1C(C#N)(c1ccccc1)C1CCN(CC2CN(c3ccc(S(=O)(=O)c4cnn(C)c4)cc3)C2)CC1` (mixture of isomers) [Cpd. No. 349, methyl (rac-(1S,2R)-2-(cyano(1-((1-(4-((1-methyl-1H-pyrazol-4-yl)sulfonyl)phenyl)azetidin-3-yl)methyl)piperidin-4-yl)(phenyl)methyl)cyclopentyl)carbamate], the IC50 in test [1] (setting [2]) was determined as 0.87 µM; in test [1] (setting [3]) it was 0.44 µM; at menin protein, 15 nM.

`COC(=O)N[C@H]1CCC[C@@H]1C(C#N)(c1ccccc1)C1CCN(CCC#Cc2ccc(C#N)cc2)CC1` (mixture of isomers) [compound 404, methyl rac-((1S,2R)-2-(cyano(1-(4-(4-cyanophenyl)but-3-yn-1-yl)piperidin-4-yl)(phenyl)methyl)cyclopentyl) carbamate]: the results for the IC50 (in test [1] (setting [2]); in test [1] (setting [3]); at menin protein) were more than 10 µM, more than 10 µM and 212 nM, respectively.
